Laboratory results published in publication PMC5218480 (PLoS ONE, 2017).

Tested on: MV-4-11 cells
Assay: Gene expression microarray analysis (Affymetrix PrimeView) and GSEA
Assay type: cell-based, human
Design: RFU PODN (11730768_x_at) / Fold change /veh PODN (11730768_x_at) / RFU LINC00158 (11744669_a_at) / Fold change /veh LINC00158 (11744669_a_at) / RFU DUSP10 (11751237_a_at) / Fold change /veh DUSP10 (11751237_a_at) / RFU ID3 (11757404_x_at) / Fold change /veh ID3 (11757404_x_at) / RFU PLEKHG5 (11737974_s_at) / Fold change /veh PLEKHG5 (11737974_s_at) / RFU LRRC4B (11730491_at) / Fold change /veh LRRC4B (11730491_at) / RFU GIMAP4 (11747438_a_at) / Fold change /veh GIMAP4 (11747438_a_at) / RFU KRT8 (11758183_x_at) / Fold change /veh KRT8 (11758183_x_at) / RFU CNN1 (11734310_a_at) / Fold change /veh CNN1 (11734310_a_at) / RFU VPS37D (11726825_at) / Fold change /veh VPS37D (11726825_at) / RFU C10orf10 (11716522_x_at) / Fold change /veh C10orf10 (11716522_x_at) / RFU KIR2DL2 /// KIR2DL4 /// KIR2DL5A /// KIR2DL5B /// KIR2DS1 /// KIR2DS2 /// KIR2DS3 /// KIR2DS4 /// KIR3DL3 /// KIR3DL3 /// KIR3DS1 (11738374_at) / Fold change /veh KIR2DL2 /// KIR2DL4 /// KIR2DL5A /// KIR2DL5B /// KIR2DS1 /// KIR2DS2 /// KIR2DS3 /// KIR2DS4 /// KIR3DL3 /// KIR3DL3 /// KIR3DS1 (11738374_at) / RFU C1QL1 (11718748_at) / Fold change /veh C1QL1 (11718748_at) / RFU TMPRSS4 (11747572_a_at) / Fold change /veh TMPRSS4 (11747572_a_at) / RFU HAMP (11756126_x_at) / Fold change /veh HAMP (11756126_x_at) / RFU RNFT2 (11725882_a_at) / Fold change /veh RNFT2 (11725882_a_at) / RFU NR4A2 (11747474_a_at) / Fold change /veh NR4A2 (11747474_a_at) / RFU ABCC12 (11746883_a_at) / Fold change /veh ABCC12 (11746883_a_at) / RFU TMEM136 (11760407_x_at) / Fold change /veh TMEM136 (11760407_x_at) / RFU CLDN22 /// WWC2 (11732394_at) / Fold change /veh CLDN22 /// WWC2 (11732394_at) / RFU HLA-DPB1 (11760878_x_at) / Fold change /veh HLA-DPB1 (11760878_x_at) / RFU SPINT1 (11716480_a_at) / Fold change /veh SPINT1 (11716480_a_at) / RFU GAP43 (11754022_s_at) / Fold change /veh GAP43 (11754022_s_at) / RFU A4GNT (11735810_at) / Fold change /veh A4GNT (11735810_at) / RFU PRB3 (11715151_x_at) / Fold change /veh PRB3 (11715151_x_at) / RFU TUBB4B (11761932_at) / Fold change /veh TUBB4B (11761932_at) / RFU CAPN14 (11732068_a_at) / Fold change /veh CAPN14 (11732068_a_at) / RFU TMCC2 (11721928_a_at) / Fold change /veh TMCC2 (11721928_a_at) / RFU IRGQ (11745062_a_at) / Fold change /veh IRGQ (11745062_a_at) / RFU FAM174B (11720279_a_at) / Fold change /veh FAM174B (11720279_a_at) / RFU TMPRSS4 (11748680_a_at) / Fold change /veh TMPRSS4 (11748680_a_at) / RFU FAM212B (11763350_a_at) / Fold change /veh FAM212B (11763350_a_at) / RFU PLEKHG5 (11743358_a_at) / Fold change /veh PLEKHG5 (11743358_a_at) / RFU ZSCAN30 (11745921_a_at) / Fold change /veh ZSCAN30 (11745921_a_at) / RFU CMKLR1 (11741424_a_at) / Fold change /veh CMKLR1 (11741424_a_at) / RFU LOC101060620 /// MAPK8IP1 (11723275_at) / Fold change /veh LOC101060620 /// MAPK8IP1 (11723275_at) / RFU SPTSSB (11747773_x_at) / Fold change /veh SPTSSB (11747773_x_at) / RFU PRSS12 (11739890_at) / Fold change /veh PRSS12 (11739890_at) / RFU BIN1 (11741810_x_at) / Fold change /veh BIN1 (11741810_x_at) / RFU WNT11 (11732464_a_at) / Fold change /veh WNT11 (11732464_a_at) / RFU C10orf10 (11716521_a_at) / Fold change /veh C10orf10 (11716521_a_at) / RFU C5orf56 (11738089_at) / Fold change /veh C5orf56 (11738089_at) / RFU CYB561 (11721691_x_at) / Fold change /veh CYB561 (11721691_x_at) / RFU ANKRD19P (11752326_a_at) / Fold change /veh ANKRD19P (11752326_a_at) / RFU OR2T12 /// OR2T33 /// OR2T8 (11738714_s_at) / Fold change /veh OR2T12 /// OR2T33 /// OR2T8 (11738714_s_at) / RFU VCAN (11748164_a_at) / Fold change /veh VCAN (11748164_a_at) / RFU JSRP1 (11732532_at) / Fold change /veh JSRP1 (11732532_at) / RFU KRTAP10-11 (11738290_x_at) / Fold change /veh KRTAP10-11 (11738290_x_at) / RFU MYO3A (11730013_a_at) / Fold change /veh MYO3A (11730013_a_at) / RFU EBF3 (11725865_a_at) / Fold change /veh EBF3 (11725865_a_at) / RFU CAMK2N1 (11719241_x_at) / Fold change /veh CAMK2N1 (11719241_x_at) / RFU C5orf56 (11738088_a_at) / Fold change /veh C5orf56 (11738088_a_at) / RFU OLFML3 (11715873_a_at) / Fold change /veh OLFML3 (11715873_a_at) / RFU LOC100653217 /// NTM (11731650_a_at) / Fold change /veh LOC100653217 /// NTM (11731650_a_at) / RFU MAPK11 (11762145_a_at) / Fold change /veh MAPK11 (11762145_a_at) / RFU FIZ1 (11724087_x_at) / Fold change /veh FIZ1 (11724087_x_at) / RFU OASL (11726364_x_at) / Fold change /veh OASL (11726364_x_at) / RFU SOX15 (11748057_x_at) / Fold change /veh SOX15 (11748057_x_at) / RFU CD79A (11719716_a_at) / Fold change /veh CD79A (11719716_a_at) / RFU HIST1H1D (11736915_at) / Fold change /veh HIST1H1D (11736915_at) / RFU CASKIN2 (11723855_a_at) / Fold change /veh CASKIN2 (11723855_a_at) / RFU LOC730098 (11760151_x_at) / Fold change /veh LOC730098 (11760151_x_at) / RFU OR4N2 (11742367_at) / Fold change /veh OR4N2 (11742367_at) / RFU PRRT2 (11749266_a_at) / Fold change /veh PRRT2 (11749266_a_at) / RFU SNX32 (11753110_a_at) / Fold change /veh SNX32 (11753110_a_at) / RFU CDHR5 (11726645_a_at) / Fold change /veh CDHR5 (11726645_a_at) / RFU RCAN1 (11760418_a_at) / Fold change /veh RCAN1 (11760418_a_at) / RFU FAM167A (11723789_a_at) / Fold change /veh FAM167A (11723789_a_at) / RFU FAM26E (11764081_at) / Fold change /veh FAM26E (11764081_at) / RFU ISYNA1 (11749810_s_at) / Fold change /veh ISYNA1 (11749810_s_at) / RFU ACY1 (11761880_at) / Fold change /veh ACY1 (11761880_at) / RFU 11764098_at / Fold change /veh 11764098_at / RFU SAMD14 (11745864_x_at) / Fold change /veh SAMD14 (11745864_x_at) / RFU NPB (11741838_a_at) / Fold change /veh NPB (11741838_a_at) / RFU TMPRSS6 (11731388_a_at) / Fold change /veh TMPRSS6 (11731388_a_at) / RFU KRTAP10-2 (11738614_at) / Fold change /veh KRTAP10-2 (11738614_at) / RFU ARHGAP8 /// PRR5-ARHGAP8 (11727945_x_at) / Fold change /veh ARHGAP8 /// PRR5-ARHGAP8 (11727945_x_at) / RFU KRTAP5-7 /// NADSYN1 (11734609_at) / Fold change /veh KRTAP5-7 /// NADSYN1 (11734609_at) / RFU RASL12 (11751679_a_at) / Fold change /veh RASL12 (11751679_a_at) / RFU CDKN2B (11736163_a_at) / Fold change /veh CDKN2B (11736163_a_at) / RFU PRF1 (11729649_at) / Fold change /veh PRF1 (11729649_at) / RFU, ZNF638 /// ZNF638-IT1 / Fold change vs veh, ZNF638 /// ZNF638-IT1 / RFU, PANK3 / Fold change vs veh, PANK3 / RFU, SH3YL1 / Fold change vs veh, SH3YL1 / RFU, ZEB2 / Fold change vs veh, ZEB2 / RFU, NRIP1 / Fold change vs veh, NRIP1 / RFU, PTTG1IP / Fold change vs veh, PTTG1IP / RFU, CAPN2 / Fold change vs veh, CAPN2 / RFU, MED14 / Fold change vs veh, MED14 / RFU, SNORA58 / Fold change vs veh, SNORA58 / RFU, C1orf63 / Fold change vs veh, C1orf63 / RFU, LRRFIP1 / Fold change vs veh, LRRFIP1 / RFU, NDUFAF7 / Fold change vs veh, NDUFAF7 / RFU, SLC12A2 / Fold change vs veh, SLC12A2 / RFU, IBTK / Fold change vs veh, IBTK / RFU, ESF1 / Fold change vs veh, ESF1 / Fold change vs veh, TMEM50B / RFU, TAOK1 / Fold change vs veh, TAOK1 / RFU, ACBD3 / Fold change vs veh, ACBD3 / RFU, TMA16 / Fold change vs veh, TMA16 / RFU, RWDD3 / Fold change vs veh, RWDD3 / RFU, BCAT1 / Fold change vs veh, BCAT1 / RFU, EDEM3 / Fold change vs veh, EDEM3 / RFU, TMEM33 / Fold change vs veh, TMEM33 / RFU, WDR75 / Fold change vs veh, WDR75 / RFU, AHCTF1 / Fold change vs veh, AHCTF1 / RFU, TFRC / Fold change vs veh, TFRC / RFU, ZDHHC17 / Fold change vs veh, ZDHHC17 / RFU, NOM1 / Fold change vs veh, NOM1 / RFU, ARL8B / Fold change vs veh, ARL8B / RFU, ZBTB11 / Fold change vs veh, ZBTB11 / RFU, TAMM41 / Fold change vs veh, TAMM41 / RFU, KIAA1704 /// LOC100996395 / Fold change vs veh, KIAA1704 /// LOC100996395 / RFU, ING1 / Fold change vs veh, ING1 / RFU, TRMT61B / Fold change vs veh, TRMT61B / RFU, FUBP3 / Fold change vs veh, FUBP3 / RFU, TP53 / Fold change vs veh, TP53 / RFU, TNKS2 / Fold change vs veh, TNKS2 / RFU, ZFP14 / Fold change vs veh, ZFP14 / RFU, ACTR2 / Fold change vs veh, ACTR2 / RFU, PPP3R1 / Fold change vs veh, PPP3R1 / RFU, PIK3R1 / Fold change vs veh, PIK3R1 / RFU, HNRNPA1 / Fold change vs veh, HNRNPA1 / RFU, RNF170 / Fold change vs veh, RNF170 / RFU, ZNF28 / Fold change vs veh, ZNF28 / RFU, RNGTT / Fold change vs veh, RNGTT / RFU, OGT / Fold change vs veh, OGT / RFU, BRD1 / Fold change vs veh, BRD1 / RFU, MARS / Fold change vs veh, MARS / RFU, ZNF655 / Fold change vs veh, ZNF655 / RFU, FAHD1 / Fold change vs veh, FAHD1 / RFU, BDP1 / Fold change vs veh, BDP1 / RFU, LRRCC1 / Fold change vs veh, LRRCC1 / RFU, ARID1A / Fold change vs veh, ARID1A / RFU, ZNF146 / Fold change vs veh, ZNF146 / RFU, ZNF330 / Fold change vs veh, ZNF330 / RFU, GPN3 / Fold change vs veh, GPN3 / RFU, C9orf123 / Fold change vs veh, C9orf123 / RFU, N4BP2L2 / Fold change vs veh, N4BP2L2 / RFU, ARFIP1 / Fold change vs veh, ARFIP1 / RFU, FAM179B / Fold change vs veh, FAM179B / RFU, BCL10 / Fold change vs veh, BCL10 / RFU, UHRF1BP1L / Fold change vs veh, UHRF1BP1L / RFU, BET1 / Fold change vs veh, BET1 / RFU, CNOT2 / Fold change vs veh, CNOT2 / RFU, ZNF268 / Fold change vs veh, ZNF268 / Fold change vs veh, ZNF507 / RFU, DGCR2 / Fold change vs veh, DGCR2 / RFU, WDSUB1 / Fold change vs veh, WDSUB1 / Fold change vs veh, HSP90B1 /// MIR3652 / RFU, ADSS / Fold change vs veh, ADSS / RFU, GK / Fold change vs veh, GK / RFU, ZNF148 / Fold change vs veh, ZNF148 / RFU, TAF9 / Fold change vs veh, TAF9 / RFU, SLC1A5 / Fold change vs veh, SLC1A5 / RFU, SLMO2 / Fold change vs veh, SLMO2 / RFU, ABCC4 / Fold change vs veh, ABCC4 / RFU, LOC101060439 /// RAP1B / Fold change vs veh, LOC101060439 /// RAP1B / RFU, RFX7 / Fold change vs veh, RFX7 / RFU, GTPBP10 / Fold change vs veh, GTPBP10 / RFU, CNEP1R1 / Fold change vs veh, CNEP1R1 / RFU, BIVM-ERCC5 /// ERCC5 / Fold change vs veh, BIVM-ERCC5 /// ERCC5 / RFU, ILF3 / Fold change vs veh, ILF3 / RFU 11762660_at / Fold change /veh 11762660_at / RFU VCAN (11757783_s_at) / Fold change /veh VCAN (11757783_s_at) / RFU DDX43 (11728927_at) / Fold change /veh DDX43 (11728927_at) / RFU KRT8 (11758188_x_at) / Fold change /veh KRT8 (11758188_x_at) / RFU NKD1 (11759106_at) / Fold change /veh NKD1 (11759106_at) / RFU SRD5A1 (11742802_a_at) / Fold change /veh SRD5A1 (11742802_a_at) / RFU TPSAB1 /// TPSB2 (11721975_s_at) / Fold change /veh TPSAB1 /// TPSB2 (11721975_s_at) / RFU GSTM3 (11746129_a_at) / Fold change /veh GSTM3 (11746129_a_at) / RFU IL23R (11737362_x_at) / Fold change /veh IL23R (11737362_x_at) / RFU TMEM51 (11727254_a_at) / Fold change /veh TMEM51 (11727254_a_at) / RFU PIWIL2 (11732686_x_at) / Fold change /veh PIWIL2 (11732686_x_at) / RFU ORM1 (11744905_x_at) / Fold change /veh ORM1 (11744905_x_at) / RFU CCDC152 (11743942_at) / Fold change /veh CCDC152 (11743942_at) / RFU ECM1 (11717891_a_at) / Fold change /veh ECM1 (11717891_a_at) / RFU IL23R (11748794_a_at) / Fold change /veh IL23R (11748794_a_at) / RFU TNFAIP8L3 (11732012_x_at) / Fold change /veh TNFAIP8L3 (11732012_x_at) / RFU MBOAT4 (11741988_at) / Fold change /veh MBOAT4 (11741988_at) / RFU 11764193_at / Fold change /veh 11764193_at / RFU TMEM53 (11763286_at) / Fold change /veh TMEM53 (11763286_at) / RFU MAGEB2 (11727129_at) / Fold change /veh MAGEB2 (11727129_at) / RFU TMEM200A (11744735_a_at) / Fold change /veh TMEM200A (11744735_a_at) / RFU CCDC152 (11751479_a_at) / Fold change /veh CCDC152 (11751479_a_at) / RFU FAM211A (11726209_a_at) / Fold change /veh FAM211A (11726209_a_at) / RFU RGS16 (11746705_a_at) / Fold change /veh RGS16 (11746705_a_at) / RFU VCAN (11755009_s_at) / Fold change /veh VCAN (11755009_s_at) / RFU RHOB (11743442_s_at) / Fold change /veh RHOB (11743442_s_at) / RFU RGS16 (11720943_a_at) / Fold change /veh RGS16 (11720943_a_at) / RFU RGS16 (11720944_at) / Fold change /veh RGS16 (11720944_at) / RFU, VPS4B / Fold change vs veh, VPS4B / RFU, CREB1 / Fold change vs veh, CREB1 / RFU, DNAJC13 / Fold change vs veh, DNAJC13 / RFU, GNAQ / Fold change vs veh, GNAQ / RFU, CDK5R1 / Fold change vs veh, CDK5R1 / RFU, ZRANB3 / Fold change vs veh, ZRANB3 / RFU, CUL4A / Fold change vs veh, CUL4A / RFU, CCNY / Fold change vs veh, CCNY / RFU, UFL1 / Fold change vs veh, UFL1 / RFU, COG3 / Fold change vs veh, COG3 / RFU, DIAPH2 / Fold change vs veh, DIAPH2 / RFU, SKA2 / Fold change vs veh, SKA2 / RFU, AFF3 / Fold change vs veh, AFF3 / RFU, LMF1 / Fold change vs veh, LMF1 / RFU, IPO11 / Fold change vs veh, IPO11 / RFU, DFFB / Fold change vs veh, DFFB / RFU, FOXP1 / Fold change vs veh, FOXP1 / RFU, CARD8 / Fold change vs veh, CARD8 / RFU, STRN3 / Fold change vs veh, STRN3 / RFU, ADK / Fold change vs veh, ADK / RFU, RASSF2 / Fold change vs veh, RASSF2 / RFU, WIPF1 / Fold change vs veh, WIPF1 / RFU, LARP1B / Fold change vs veh, LARP1B / RFU, RASA1 / Fold change vs veh, RASA1 / RFU, RB1 / Fold change vs veh, RB1 / RFU, PPFIA1 / Fold change vs veh, PPFIA1 / RFU, MAT2A / Fold change vs veh, MAT2A / RFU, CCT5 / Fold change vs veh, CCT5 / RFU, WDR92 / Fold change vs veh, WDR92 / RFU, CUX1 / Fold change vs veh, CUX1 / RFU, TTC7A / Fold change vs veh, TTC7A / RFU, TMEM135 / Fold change vs veh, TMEM135 / RFU, DEPTOR / Fold change vs veh, DEPTOR / RFU, CPM / Fold change vs veh, CPM / RFU, DNAJB6 / Fold change vs veh, DNAJB6 / RFU, CACNA2D3 / Fold change vs veh, CACNA2D3 / RFU, DTX4 / Fold change vs veh, DTX4 / RFU, TFCP2 / Fold change vs veh, TFCP2 / RFU, GMCL1 /// GMCL1P1 / Fold change vs veh, GMCL1 /// GMCL1P1 / RFU, AEBP2 / Fold change vs veh, AEBP2 / RFU, SNHG1 /// SNORD22 /// SNORD25 /// SNORD26 /// SNORD27 /// SNORD28 /// SNORD29 /// SNORD31 / Fold change vs veh, SNHG1 /// SNORD22 /// SNORD25 /// SNORD26 /// SNORD27 /// SNORD28 /// SNORD29 /// SNORD31 / Fold change (Aza/veh), C12orf56 (ProbeSet 11735607_a_at) / Fold change (ACY-1035/veh), C12orf56 (ProbeSet 11735607_a_at) / Fold change (Aza/veh), FGFR1OP (ProbeSet 11751329_s_at) / Fold change (ACY-1035/veh), FGFR1OP (ProbeSet 11751329_s_at) / Fold change (Aza/veh), VPS36 (ProbeSet 11739960_a_at) / Fold change (ACY-1035/veh), VPS36 (ProbeSet 11739960_a_at) / RFU SYPL1 (11715823_x_at) / Fold change /veh SYPL1 (11715823_x_at) / RFU IGFBP7 (11715501_s_at) / Fold change /veh IGFBP7 (11715501_s_at) / RFU REEP3 (11722064_at) / Fold change /veh REEP3 (11722064_at) / RFU IGLL1 (11728026_x_at) / Fold change /veh IGLL1 (11728026_x_at): dose or concentration left out as unconfirmed
Details: ProbeSet 11752001_a_at; LIST D

Nc1ccc(-c2cccs2)cc1NC(=O)c1ccc2c(c1)cc(C1CC1)n2CCN1CCOCC1 [ACY-1035]
Fold change vs veh, CUL4A: 0.87
